Experimental data taken from patent US12492211B2, “Crystalline form of nitrogen-containing tricyclic compound and use thereof” (SUNSHINE LAKE PHARMA CO., LTD., priority 2019, dated 2025).

Columns and labels:
[1] = Pharmacokinetic test in Beagle dogs, oral capsules; type: in vivo; conditions: 5 mg/kg oral
Method: The crystal form A of compound having Formula (I) named 2-((5-cyclopropyl-3-(2,6-dichlorophenyl)isoxazol-4-yl)methoxy)-10H-spiro[benzo[6,7]oxepino[3,2-b]pyridine-11,1′-cyclopropane]-7-carboxylic acid was filled into capsules, which was for oral administration.
8-12 kg Male Beagle dogs were given 5 mg/kg test sample orally, with 3 animals in each group. Blood samples were taken at time points of 0.25, 0.5, 1.0, 2.0, 4.0, 6.0, 8.0, 12 and 24 h. Standard curve was plotted based on concentrations of the samples in a suitable range, the concentration of the test sample in the plasma sample was measured and quantified by AB SCIEX API4000 LC-MS/MS at MRM mode. Pharmacokinetic parameters were calculated according to drug concentration-time curve using a noncompartmental model by WinNonLin 6.3 software.

[2] = Stability test: high-temperature test (60° C.); type: physicochemical; conditions: for Purity (%): HPLC
Method: (§1) (1) High-temperature test: A batch of the test sample was taken into a flat weighing bottle, divided into ≤5 mm thick thin layer. The sample was placed at 60° C. for 30 days. The sample was then sampled at day 5, day 10 and day 30, and the change of the sample's color was observed. The purity of the sample was detected by HPLC, and the structure of the sample was analyzed by X-ray powder diffraction, the change of X-ray powder diffraction in high temperature test was […] as shown in FIG. 4.

[3] = Stability test: high-humidity test (25° C., RH 90%±5%); type: physicochemical; conditions: for Appearance / Purity (%): High-humidity 25° C., RH 90%±5%; for Purity (%): HPLC
Method: as §1, with “(2) High-humidity” for “(1) High-temperature”, “25° C., RH 90%±5%” for “60° C.”, “humidity” for “temperature”, “5.” for “4.”

[4] = Stability test: light test (4500±500lx, UV); type: physicochemical; conditions: for Appearance / Purity (%): Light 4500±500lx, UV; for Purity (%): HPLC
Method: as §1, with “(3) Light” for “(1) High-temperature”, “placed in an opened light box (with UV)” for “placed”, “the illuminance 4500±500lx, UV light ≥0.7 w/m^2” for “60° C.”, “13” for “10”, “light” for “high temperature”, “6.” for “4.”

[5] = Hygroscopicity test by dynamic moisture adsorption (DVS); type: physicochemical; conditions: relative humidity of 80%
Method: The description of the hygroscopic feature and the definition of the hygroscopic weight gain (Chinese Pharmacopoeia 2015 edition, Appendix 9103 Guidelines for Drug Hygroscopicity Tests, experimental conditions: 25° C.±1° C., 80%±2% relative humidity) are as described in the table below.
An appropriate amount of the test sample was taken and the hygroscopicity of the test sample was tested by dynamic moisture adsorption device. […] That is, the crystal form A of the invention is not easily deliquescent under the influence of high humidity.

[6] = dog, plasma, male Beagle dogs, capsules
[7] = High-temperature 60° C., 5 days
[8] = High-temperature 60° C., 10 days
[9] = High-temperature 60° C., 30 days

Structure (SMILES): O=C(O)c1ccc2c(c1)Oc1ccc(OCc3c(-c4c(Cl)cccc4Cl)noc3C3CC3)nc1C1(CC1)C2 [Crystal form A, 2-((5-cyclopropyl-3-(2,6-dichlorophenyl)isoxazol-4-yl)methoxy)-10H-spiro[benzo[6,7]oxepino[3,2-b]pyridine-11,1′-cyclopropane]-7-carboxylic acid]
- exposure in Beagle dogs ([1]; conclusion in words): relatively large exposure
- AUC(0-t) [1, 6]: 237 ng·h/mL
- Cmax [1, 6]: 86 ng/mL
- Tmax ([1]; male Beagle dogs, capsules): 40 min
- Appearance ([2]; 0 days (initial sample)): White
- Purity (%) ([2]; 0 days (initial sample)): 99.44%
- Appearance [2, 7]: White
- Purity (%) [2, 7]: 99.33%
- Appearance [2, 8]: White
- Purity (%) [2, 8]: 99.35%
- Appearance [2, 9]: White
- Purity (%) [2, 9]: 99.45%
- changes of appearance, chemical purity and crystal form ([2]; high-temperature, up to 30 days): no obvious changes
- Appearance ([3]; 5 days): White
- Purity (%) ([3]; 5 days): 99.55%
- Appearance ([3]; 10 days): White
- Purity (%) ([3]; 10 days): 99.39%
- Appearance ([3]; 30 days): White
- Purity (%) ([3]; 30 days): 99.42%
- changes of appearance, chemical purity and crystal form ([3]; high-humidity, up to 30 days): no obvious changes
- Appearance ([4]; 5 days): White
- Purity (%) ([4]; 5 days): 99.53%
- Appearance ([4]; 13 days): White
- Purity (%) ([4]; 13 days): 99.31%
- Appearance ([4]; 30 days): White
- Purity (%) ([4]; 30 days): 99.43%
- changes of appearance, chemical purity and crystal form ([4]; light, up to 30 days): no obvious changes
- hygroscopic feature according to the criterion for the hygroscopic weight gain [5]: no or almost none hygroscopicity
- weight gain after equilibrium [5]: less than 0.1%
